Experimental data published in ChEMBL document CHEMBL1124332, “2-(Alkylamino)tetralin derivatives: interaction with 5-HT1A serotonin binding sites” (J Med Chem, 1989).

What was measured:
[1] = molecular target: T1, 5-hydroxytryptamine receptor 1A (Rattus norvegicus, UniProt P19327); assay: Binding affinity at [3H]8-OH-DPAT-Labeled 5-hydroxytryptamine 1A receptor sites in rat brain hippocampal membranes; format: cell membranes
T1 sequence (P19327 whole entry): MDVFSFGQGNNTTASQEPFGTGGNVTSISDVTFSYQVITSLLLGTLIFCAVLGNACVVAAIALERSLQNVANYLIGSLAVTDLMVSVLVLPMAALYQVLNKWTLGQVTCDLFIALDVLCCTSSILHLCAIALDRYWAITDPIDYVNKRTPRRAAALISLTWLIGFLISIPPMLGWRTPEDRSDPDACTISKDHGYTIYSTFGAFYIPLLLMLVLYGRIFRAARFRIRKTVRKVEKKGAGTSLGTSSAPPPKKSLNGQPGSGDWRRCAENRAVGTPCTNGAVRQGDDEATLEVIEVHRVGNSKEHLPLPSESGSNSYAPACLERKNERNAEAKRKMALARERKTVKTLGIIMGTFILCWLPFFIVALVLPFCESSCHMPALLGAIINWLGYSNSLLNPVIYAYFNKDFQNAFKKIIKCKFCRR

[2] = molecular target: T2, 5-hydroxytryptamine receptor 1A (Rattus norvegicus) (UniProt P19327); assay: Binding affinity at [3H]8-OH-DPAT-Labeled 5-hydroxytryptamine 1A receptor sites in rat brain hippocampal membranes expressed as Hill values; format: cell membranes
T2 sequence (whole entry): T1 sequence (P19327 whole entry)

Row | SMILES | Ki [1] [nM] | Hill coefficient [2]
1 | COc1cccc2c1CC(N(C)CCCc1ccccc1)CC2 (stereo not drawn) | 2 | 0.94
2 | COc1cccc2c1CC(NCCCc1ccccc1)CC2 (stereo not drawn) | 2.5 | 0.83
3 | c1ccc(CCCNC2CCc3ccccc3C2)cc1 (stereo not drawn) | 13 | 1.06
4 | COc1cccc2c1CC(NCCc1ccccc1)CC2 (stereo not drawn) | 44 | 0.85
5 | COc1cccc2c1CC(NCCCCc1ccccc1)CC2 (stereo not drawn) | 5.6 | 0.92
6 | Oc1cccc2c1CC(NCCCc1ccccc1)CC2 (stereo not drawn) | 1.9 | 0.87
7 | CCCN(C)C1CCc2cccc(OC)c2C1 (stereo not drawn) | 2.1 | 0.91
8 | c1ccc(CCCNC2CCc3cccc(OCc4ccccc4)c3C2)cc1 (stereo not drawn) | 10 | 0.91
9 | CCCN(CCC)C1CCc2cccc(O)c2C1 (stereo not drawn) |  | 1.01
10 | CCCNC1CCc2cccc(OC)c2C1 (stereo not drawn) | 2.3 | 0.8
11 | COc1cccc2c1CC(N)CC2 (stereo not drawn) | 53 | 0.77
12 | CCCNC1CCc2ccccc2C1 (stereo not drawn) | 19 | 0.74
13 | COc1cccc2c1CC(N(C)Cc1ccccc1)CC2 (stereo not drawn) | 78 | 0.91
14 | COc1cccc2c1CC(N(C)CCc1ccccc1)CC2 (stereo not drawn) | 7.9 | 0.9
15 | CCCN(CCC)C1CCc2cccc(OC)c2C1 (stereo not drawn) |  | 0.78
